Assay results as given in patent publication US8410310B2, “Trypsin-like serine protease inhibitors, and their preparation and use” (The Medicines Company (Leipzig) GmbH, priority 2006, dated 2013).
pIC50, pKi: −log10 of the molar value.

Tests used:
[1] = test system: t-PA-induced lysis of whole blood clots; experiment: Whole blood fibrinolysis assay (ROTEM, EXTEM with t-PA); type: cell-based, human; conditions: human whole blood, t-PA 100 U/mL, Ly60; read-out: concentration resulting in 50% suppression of clot lysis (IC50, median [25%; 75% percentile])
Experimental: (§1) Venous blood was withdrawn from the antecubital vein from healthy volunteers after written informed consent in accordance with local and federal guidelines with approval of the local review board (Ethikkommission, Klinikum Charité, Sauerbruchweg 5, 10117 Berlin). The blood was mixed with 0.11 mol/L sodium citrate (1:10). For ROTEM® analysis, whole citrated blood was used within 8 h after collection. Platelet-rich plasma (PRP) was prepared from citrated blood by centrifugation at 330×g for 10 min at room temperature, platelet-poor plasma (PPP) was collected following centrifugation at 1220×g for 12 min. The PRP was then adjusted to 3×10^8 platelets per mL using the autologous PPP. PRP was maintained at room temperature for less than 4 h before analysis. The remaining PPP was subjected to a high-speed centrifugation at 40,000×g for 30 min at 4° C. to remove any particulate material and was then stored at −70° C. until use.
(§2) The antifibrinolytic activity of Compound No. 3 in comparison to aprotinin and tranexamic acid was investigated in plasma and whole blood assays. In both assays, tissue factor was added to initiate rapid clot formation via the extrinsic pathway which produces a clot that remains stable for several hours under normal conditions. Supplementation of plasma or whole blood with tissue-type plasminogen activator (t-PA) before stimulation results in activation of endogenous plasminogen and thus fibrinolysis while the initial clot formation is not impaired. […] A final concentration of 50 U/mL and 100 U/mL in plasma and whole blood, respectively, was chosen to achieve complete lysis within about 60 min. In the presence of antifibrinolytics, clot lysis is delayed in a concentration-dependent manner.
Fibrinolysis in whole blood was studied with rotational thromboelastometry (Luddington, Clin. Lab. Haematol. 27: 81-90, 2005) using a computerized, multi-channel ROTEM® instrument (Pentapharm, Munich, Germany) (Ganter et al., Anesth. Analg. 106: 1366-75, 2008). Activation of test samples accelerated the measurement process and enhanced reproducibility compared with conventional thromboelastography. To allow observation of fibrinolysis, ROTEM® analysis with tissue factor activation (EXTEM) was modified through addition of t-PA (Nielsen et al. Blood Coagul. Fibrinolysis 17: 75-81, 2006). Citrated blood was pre-incubated at 37° C. for 5 min with test compound or saline before tissue factor, CaCl2 and t-PA (100 U/mL final concentration) were added to start the reaction. Fibrinolysis was determined by measuring loss of clot strength with time and was recorded as Ly60 (percentage reduction of the maximum amplitude at 60 min after the onset of clotting). In control samples without inhibitor, clots were lysed completely within 60 min, such that Ly60 was above 90%. By plotting Ly60 versus test compound concentration, IC50 values for each compound were calculated.

[2] = test system: t-PA-induced fibrinolysis in plasma; experiment: Plasma fibrinolysis assay (turbidometric); type: biochemical; conditions: human plasma, t-PA 50 U/mL; read-out: IC50 on t-PA-induced fibrinolysis in plasma (median [25%; 75% percentile])
Experimental: as §1, §2
Inhibition of fibrinolysis in plasma was examined using a turbidometric method in 96-well flat-bottom plates. The time course of clot formation and lysis, reflected by an initial increase and subsequent decrease in turbidity, was recorded by continuously measuring the optical density (OD) at 405 nm. Similar models have been used widely to study the clot lysis process in human plasma (Kim et al., J. Thromb. Haemost. 5: 1250-6, 2007) as well as its inhibition by antifibrinolytic drugs (Sperzel et al., J. Thromb. Haemost. 5: 2113-8, 2007). Frozen and thawed human plasma (PPP) was pre-incubated with test compound or vehicle (Owren's Veronal buffer) for 5 min at 37° C. […] OD at 405 nm was monitored every 45 s for 180 min at 37° C. with a microplate reader (POLARstar OPTIMA, BMG Labtech, Offenburg, Germany). Fibrinolysis was quantified as the relative decrease in OD at 45 min after the maximum OD was reached. […]

plasmin = plasmin (Homo sapiens, UniProt P00747); experiment: Determination of inhibition constants for plasmin; type: biochemical; design: purchased Calbiochem; conditions: 25° C., substrate Chromozym PL, pH 8.0; read-out: Plasmin [Ki]
Experimental: (§3) The inhibitory effect for the individual enzymes was determined in analogy to a previously disclosed method (Stürzebecher et al., 1997).
(§4) For zero order kinetics, the reaction was stopped after 20 min by adding 25 μl of acetic acid (50% v/v), and the absorption at 405 nm was determined using a Microplate Reader (Multiscan Ascent, from Thermo). In the case of pseudo-first order kinetics, the reaction rates in the equilibrium state were ascertained by recording the reaction kinetics. The Ki values were ascertained either in accordance with Dixon (1953) by linear regression using a computer program or by parameter fitting in accordance with the rate equation for competitive inhibition. The Ki values are the average of at least two determinations.

Xa = Xa (Homo sapiens, UniProt P00742); experiment: Determination of inhibition constants for Xa; type: biochemical
Experimental: as §3, §4

Thrombin = Thrombin (Homo sapiens, UniProt P00734); experiment: Determination of inhibition constants for thrombin; type: biochemical
Experimental: as §3, §4

plasma kallikrein = plasma kallikrein (Homo sapiens, UniProt P03952); experiment: Determination of inhibition constants for PK; type: biochemical; design: purchased Enzyme Research Lab. / Enzyme Research Laboratories; conditions: 25° C., substrate S2302, pH 8.0; read-out: PK [Ki]
Experimental: as §3, §4

Chain of Xa (P00742 235-488 limits assumed): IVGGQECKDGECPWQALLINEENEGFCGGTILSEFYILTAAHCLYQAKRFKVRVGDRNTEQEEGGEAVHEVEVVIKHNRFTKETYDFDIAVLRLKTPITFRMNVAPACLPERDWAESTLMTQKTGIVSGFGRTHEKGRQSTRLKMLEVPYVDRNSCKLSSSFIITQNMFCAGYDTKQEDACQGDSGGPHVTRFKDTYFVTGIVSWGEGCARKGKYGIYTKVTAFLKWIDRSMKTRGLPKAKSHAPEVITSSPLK
Chain of Xa (P00742 41-179 limits assumed): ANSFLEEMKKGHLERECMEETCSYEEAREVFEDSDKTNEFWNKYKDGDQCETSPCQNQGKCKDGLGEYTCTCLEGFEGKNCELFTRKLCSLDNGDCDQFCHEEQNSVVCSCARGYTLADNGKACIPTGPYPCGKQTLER
Chain of plasma kallikrein (P03952 391-638 limits assumed): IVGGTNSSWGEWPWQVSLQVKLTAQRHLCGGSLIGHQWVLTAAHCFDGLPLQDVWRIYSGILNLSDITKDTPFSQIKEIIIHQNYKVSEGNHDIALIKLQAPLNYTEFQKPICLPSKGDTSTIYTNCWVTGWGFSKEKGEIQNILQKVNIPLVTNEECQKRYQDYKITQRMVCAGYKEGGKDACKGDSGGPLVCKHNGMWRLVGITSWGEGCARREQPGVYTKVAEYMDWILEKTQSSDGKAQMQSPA
Chain of plasma kallikrein (P03952 20-390 partner limits assumed): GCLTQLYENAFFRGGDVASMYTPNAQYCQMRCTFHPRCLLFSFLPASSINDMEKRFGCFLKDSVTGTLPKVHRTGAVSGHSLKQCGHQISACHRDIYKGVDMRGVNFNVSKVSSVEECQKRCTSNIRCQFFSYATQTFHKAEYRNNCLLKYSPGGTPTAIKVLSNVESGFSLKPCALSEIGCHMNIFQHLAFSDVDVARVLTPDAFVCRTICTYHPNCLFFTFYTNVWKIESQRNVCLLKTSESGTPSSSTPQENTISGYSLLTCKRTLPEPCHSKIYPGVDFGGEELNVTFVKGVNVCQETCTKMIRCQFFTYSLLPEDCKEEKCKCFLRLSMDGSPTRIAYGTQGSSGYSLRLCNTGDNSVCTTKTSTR
Chain of plasmin (P00747 581-810 limits assumed): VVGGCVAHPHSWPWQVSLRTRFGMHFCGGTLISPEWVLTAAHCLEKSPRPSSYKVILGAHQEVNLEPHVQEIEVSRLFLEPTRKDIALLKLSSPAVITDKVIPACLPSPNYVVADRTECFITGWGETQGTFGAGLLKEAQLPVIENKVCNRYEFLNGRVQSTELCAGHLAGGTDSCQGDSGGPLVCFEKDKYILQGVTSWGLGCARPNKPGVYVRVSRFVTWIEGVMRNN
Chain of plasmin (P00747 97-580 partner limits assumed): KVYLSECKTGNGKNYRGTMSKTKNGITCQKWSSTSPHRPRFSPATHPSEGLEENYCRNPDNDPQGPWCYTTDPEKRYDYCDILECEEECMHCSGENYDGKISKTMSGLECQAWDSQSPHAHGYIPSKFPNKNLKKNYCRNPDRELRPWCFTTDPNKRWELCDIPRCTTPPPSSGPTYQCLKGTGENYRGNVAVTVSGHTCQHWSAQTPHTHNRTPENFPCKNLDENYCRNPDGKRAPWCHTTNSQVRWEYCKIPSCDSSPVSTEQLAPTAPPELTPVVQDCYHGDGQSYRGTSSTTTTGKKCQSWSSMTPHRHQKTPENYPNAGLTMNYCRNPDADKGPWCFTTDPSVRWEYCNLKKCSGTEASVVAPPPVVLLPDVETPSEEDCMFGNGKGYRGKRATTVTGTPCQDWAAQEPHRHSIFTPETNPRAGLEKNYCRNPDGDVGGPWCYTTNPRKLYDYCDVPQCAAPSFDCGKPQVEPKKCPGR

| pIC50 [1] | pIC50 [2] | pKi (plasmin) | pKi (Xa) | pKi (Thrombin) | pKi (plasma kallikrein) | Structure (SMILES) |
| --- | --- | --- | --- | --- | --- | --- |
| 5.56 | 5.37 |  |  |  |  | NC[C@H]1CC[C@H](C(=O)O)CC1 [tranexamic acid, trans-4-(aminomethyl)cyclo-hexanecarboxylic acid] |
|  |  | > 8.00 | > 8.00 | > 8.00 | > 8.00 | N=C(N)c1ccc(CNC(=O)[C@H](CCc2ccccc2)NC(=O)[C@@H](CCCc2cccnc2)NS(=O)(=O)Cc2ccccc2)cc1 [compound 51] |
